US7413747B2, “Transdermal therapeutic system for treating Parkinsonism” (LTS Lohmann Therapie-Systeme AG, priority 1998, dated 2008)

Experiments:
[1] = Solubility of the active substance in polyacrylate adhesives; assay type: physicochemical; conditions: polyacrylate adhesive matrix; ambient temperature
Source text: (§1) The transdermal therapeutic system according to this invention, of the kind mentioned at the beginning and developed in accordance with the above, is essentially characterized by a matrix on the basis of an acrylate-based or silicone-based non-aqueous polymer adhesive system having a solubility for the free D2-agonist base (−)-5,6,7,8-tetrahydro-6-[propyl-[2-(2-thienyl)ethyl]amino]-1-naphthalenol of >5% (w/w), which matrix is substantially free of inorganic silicate particulates. The solubility is determined at ambient temperature.
In systems wherein the active substance is only partially dissolved the concentration of the dissolved active substance is equal to the saturation concentration and thus has the maximum thermodynamic activity under these conditions. In general, it is, above all, the kind and quantity of the free functional groups in the adhesive which are important for the dissolving capacity of the polyacrylate adhesives. […] Such a system must therefore contain the active substance in a concentration of at least 10% (w/w) in order to come sufficiently near to the maximal thermodynamic activity. For the hydrochloride of (−)-5,6,7,8-tetrahydro-6-[propyl-[2-(2-thienyl)ethyl]amino]-1-naphthalenol the solubility in polyacrylates having 5-10% (w/w) is much lower, so that in such systems the active substance is preferably only partially dissolved.

[2] = Solubility (saturation capacity) of the active substance in silicone adhesives; assay type: physicochemical; conditions: for saturation capacity in silicone adhesives: silicone adhesive without solubility-increasing additive
Source text: as §1
This is sufficient to dissolve 10 mg active substance in a 20 cm^2 large patch having a coat weight of the matrix of 50 g/m^2. Since with transdermal patch systems one must always assume that only about 50% of the active substance employed will be available during the period of application, given a daily dose in the range of 1-10 mg of the active substance a plaster size of between 2 and 40 cm^2 can be expected to be sufficient to achieve therapeutic plasma levels.

[3] = Permeation studies utilizing Franz diffusion cells and human epidermis; assay type: in vitro ADME; conditions: skin, due to hydrophilic properties
Source text: The finished plasters were used in permeation studies utilizing Franz diffusion cells and human epidermis. It will be seen that all plasters are capable of systemically providing a sufficient amount of active substance through the skin. […] It will also be seen that the silicone adhesive-based plasters, although having a considerably lower active substance content, deliver approximately the same quantity of active substance via the skin as the systems based on polyacrylate adhesives.

CCCN(CCc1cccs1)C1CCc2c(O)cccc2C1 (single isomer, unassigned; (-)) [(−)-5,6,7,8-tetrahydro-6-[propyl-[2-(2-thienyl)ethyl]amino]-1-naphthalenol]
solubility in polyacrylate adhesives [1]: 15-35 % (w/w)
solubility in amine-resistant silicone adhesive ([2]; about 1.5-5% (w/w) of polyvinylpyrrolidone in the adhesive): 10-15 % (w/w)
dissolving capacity for the free base in silicone adhesive matrices ([2]; silicone adhesive admixed with a substance having increased solubility for the active substance (e.g. polyvinylpyrrolidone)): up to 40 % (w/w)
saturation capacity in silicone adhesives [2]: about 5 % (w/w)

CCCN(CCc1cccs1)C1CCc2c(O)cccc2C1.Cl (single isomer, unassigned; (-)) [(−)-5,6,7,8-tetrahydro-6-[propyl-[2-(2-thienyl)ethyl]amino]-1-naphthalenol hydrochloride]
solubility in polyacrylate adhesives [1]: 5-10 % (w/w)
saturation capacity in silicone adhesives [2]: practically insoluble
passing the barrier of the stratum corneum [3]: only poorly
